The results in this text go back to ChEMBL document CHEMBL4732064, “Structure-activity relationship studies of phenothiazine derivatives as a new class of ferroptosis inhibitors together with the therapeutic effect in an ischemic stroke model” (Eur J Med Chem, 2021).

In general, IC50 refers to the concentration at which inhibition is half-maximal. By EC50 is commonly meant the concentration that produces a half-maximal response.

Molecules are shown by their SMILES. Activity calls are given as the source filed them. The calls are words filed in the database; no cut-off is given here.

In test [1] the target is Bifunctional arginine demethylase and lysyl-hydroxylase JMJD6 (Homo sapiens, UniProt Q6NYC1). The experiment in a line: Inhibition of JMJD6 (unknown origin).
The test system of test [2] is HT-1080. As to the kind of experiment: Antioxidant activity in erastin-induced human HT-1080 cell ferroptosis model assessed as decrease in cytosolic ROS accumulation at 0.01 to 1 uM incubated for 8 to 24 hrs by DCFH-DA staining based assay. It counts as functional. The conditions noted are these: dose 0.01-1 µM, time 8-24 hrs.
The test system of test [3] is MDA-MB-231. As to the kind of experiment: Inhibition of erastin-induced ferroptosis in human MDA-MB-231 cells assessed as cell viability incubated for 48 hrs by MTT assay. It counts as functional, cell-based. The conditions noted are these: MDA-MB-231, 48 h.
In test [4] the target is T1, 5-hydroxytryptamine receptor 2C (Homo sapiens) (UniProt P28335).
T1 sequence (whole entry): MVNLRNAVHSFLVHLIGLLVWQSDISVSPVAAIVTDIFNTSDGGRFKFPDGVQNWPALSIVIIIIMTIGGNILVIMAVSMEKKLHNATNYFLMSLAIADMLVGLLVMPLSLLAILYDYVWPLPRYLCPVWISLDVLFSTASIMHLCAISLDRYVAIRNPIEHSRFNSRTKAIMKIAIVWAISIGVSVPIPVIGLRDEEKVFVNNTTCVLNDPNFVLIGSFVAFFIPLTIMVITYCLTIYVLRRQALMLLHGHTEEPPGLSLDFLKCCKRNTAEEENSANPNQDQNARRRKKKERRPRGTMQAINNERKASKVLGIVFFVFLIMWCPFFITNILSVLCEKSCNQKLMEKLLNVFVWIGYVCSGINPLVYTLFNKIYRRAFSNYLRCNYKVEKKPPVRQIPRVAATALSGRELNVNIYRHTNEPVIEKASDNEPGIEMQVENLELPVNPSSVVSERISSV
The experiment in a line: Antagonist activity at HTR2C (unknown origin) by FLIPR assay.

Test [5] has as its system Calu-1. As to the kind of experiment: Antioxidant activity in erastin-induced human Calu-1 cell ferroptosis model assessed as decrease in lipid ROS accumulation at 0.01 to 1 uM incubated for 8 to 24 hrs by BODIPY 581/591 C11 staining based flow cytometric analysis. It counts as functional. As to conditions: dose 0.01-1 µM, time 8-24 hrs. (In general: Flow cytometry measures light scatter and fluorescence of single cells or particles in a stream.)

Test [6] addresses D(2) dopamine receptor (Homo sapiens) (UniProt P14416). As to the kind of experiment: Antagonist activity at DRD2L (unknown origin) by FLIPR assay.
The test system of test [7] is Calu-1. As to the kind of experiment: Inhibition of erastin-induced ferroptosis in human Calu-1 cells assessed as cell viability incubated for 48 hrs by MTT assay. The class given is functional, cell-based. The conditions noted are these: Calu-1, 48 h. On the technique in general: Tetrazolium assays rely on reduction of a dye to a coloured formazan, in cell work by metabolically active cells.

Test [8] concerns Rattus norvegicus. As to the kind of experiment: Protective activity in Sprague-Dawley rat model of middle cerebral artery occlusion-induced ischemia-reperfusion injury assessed as reduction in MDA level at 5 mg/kg, iv measured after 24 hrs of post reperfusion […]. The class given is functional, organism-based.
The test system of test [9] is Rattus norvegicus. The experiment in a line: Protective activity in Sprague-Dawley rat model of middle cerebral artery occlusion-induced ischemia-reperfusion injury assessed as increase in GSH level at 5 mg/kg, iv measured after 24 hrs of post reperfusion […]. It counts as functional, organism-based.
In test [10] the test system is Rattus norvegicus. The experiment in a line: Protective activity in Sprague-Dawley rat model of middle cerebral artery occlusion-induced ischemia-reperfusion injury assessed as reduction in neurological score at 5 mg/kg, iv measured after 24 hrs of post reperfusion […]. It counts as functional, organism-based.
The subject of test [11] is HT-29. The experiment in a line: Protection against TNFalpha/Smac-mimetic/Z-VAD-FMK-induced necroptosis in human HT-29 cells assessed as cell viability at 10 uM. The class given is functional, cell-based.
Test [12] has as its system HT-1080. The experiment in a line: Inhibition of xCT expression in erastin-induced human HT-1080 cell ferroptosis model at 0.01 to 1 uM after 10 hrs by Western blot analysis. The class given is functional. As to conditions: dose 0.01-1 µM. In general terms: Immunoblotting shows a protein as a band on a membrane.
The target of test [13] is Histamine H1 receptor (Homo sapiens) (UniProt P35367). The experiment in a line: Antagonist activity at H1 (unknown origin) by FLIPR assay.
Chain of Histamine H1 receptor (Homo sapiens) (P35367 whole entry): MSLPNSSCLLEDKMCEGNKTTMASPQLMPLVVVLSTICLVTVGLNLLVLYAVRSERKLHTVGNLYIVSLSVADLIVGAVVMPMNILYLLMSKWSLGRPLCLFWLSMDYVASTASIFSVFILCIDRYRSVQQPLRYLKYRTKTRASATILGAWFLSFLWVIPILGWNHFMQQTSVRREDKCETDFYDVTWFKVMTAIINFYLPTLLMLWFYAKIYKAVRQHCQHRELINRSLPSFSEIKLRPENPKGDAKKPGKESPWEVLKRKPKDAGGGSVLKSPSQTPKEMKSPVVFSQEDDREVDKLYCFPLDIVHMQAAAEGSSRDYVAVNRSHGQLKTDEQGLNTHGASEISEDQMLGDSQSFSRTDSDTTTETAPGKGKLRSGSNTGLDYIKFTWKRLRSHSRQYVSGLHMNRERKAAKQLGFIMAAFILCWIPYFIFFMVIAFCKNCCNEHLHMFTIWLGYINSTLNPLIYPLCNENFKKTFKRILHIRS
Test [14] concerns Calu-1. The experiment in a line: Antioxidant activity in erastin-induced human Calu-1 cell ferroptosis model assessed as decrease in cytosolic ROS accumulation at 0.01 to 1 uM incubated for 8 to 24 hrs by DCFH-DA staining based assay. It counts as functional. As to conditions: dose 0.01-1 µM, time 8-24 hrs.

Chain of D(2) dopamine receptor (Homo sapiens) (P14416 whole entry): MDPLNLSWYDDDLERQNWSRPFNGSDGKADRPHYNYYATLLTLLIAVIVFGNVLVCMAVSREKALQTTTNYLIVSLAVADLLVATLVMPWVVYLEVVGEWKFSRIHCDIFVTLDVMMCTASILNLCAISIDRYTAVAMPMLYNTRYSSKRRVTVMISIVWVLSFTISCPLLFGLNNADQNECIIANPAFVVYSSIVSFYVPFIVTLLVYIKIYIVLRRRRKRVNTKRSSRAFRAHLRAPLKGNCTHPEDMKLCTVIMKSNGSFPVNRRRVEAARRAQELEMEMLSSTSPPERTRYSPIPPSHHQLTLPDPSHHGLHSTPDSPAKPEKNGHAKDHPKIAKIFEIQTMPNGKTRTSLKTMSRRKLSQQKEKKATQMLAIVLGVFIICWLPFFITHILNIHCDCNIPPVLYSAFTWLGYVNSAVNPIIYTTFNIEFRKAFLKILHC

In turn, `CC(c1ccc(N2CCN(C)CC2)cc1)c1ccc2c(c1)Nc1ccccc1S2` (centres undefined) showed an IC50 in [1] of over 10000 nM. Moreover, the result in test [2], in test [5], in test [8], in test [9], in [10] and in test [14] was Active. Also, the EC50 in [3] turned out to be 0.424 nM; in test [7], 1.88 nM. Also, the result in test [4], in test [6], in test [11] and in test [13] was inactive. The inhibition result in test [12] was “inactive”.
